PubChem BioAssay (NCI)
Several values for one entry are separate records, joined by “and”; a condition that tells them apart may be missing. Identical values can stand only once.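 Values below derive from 48-hour exposures of cells grown in 96-well plates, with endpoints linearly interpolated between the two concentrations bracketing the appropriate inhibition level. Here, GI50 denotes the concentration required for 50% inhibition of growth. At the TGI there is no net growth.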

These compounds were tested on HCT-116 colon (assay: NCI-60 cell line screen, 48 h).
`Nc1ccccc1SC(CC(=O)c1ccccc1)c1cccc([N+](=O)[O-])c1` (stereo unspecified) showed a GI50 of 1.96 µM and a TGI of 3.97 µM. `CN1CC[C@@H](NC(=O)Nc2ccc(C#N)cc2)C[C@@H]1c1nc2ccccc2[nH]1` was tested, and the GI50 was greater than 87.1 µM and the TGI was greater than 100 µM. `COc1ccc2nc(NC(=O)CSc3nnc4n3S(=O)(=O)c3ccccc3N4c3ccccc3)sc2c1` was tested, and the GI50 was 94.1 µM and the TGI was greater than 100 µM. In the case of `O=C1NC(=NC(CO)Cc2ccccc2)S/C1=C\c1ccc2ncccc2c1` (stereo unspecified), the GI50 is reported as 9.89 µM and 1.13 µM and the TGI is reported as greater than 25 µM. `Cc1nnc(NC(=O)c2nc(S(=O)(=O)Cc3ccc(F)cc3)ncc2Cl)s1` gave a GI50 of 1.83 µM and a TGI of 3.67 µM. Compound `CC(C)[C@@H]1C=C2CC[C@H]3[C@](C)(CN)CCC[C@]3(C)[C@H]2CC1` has a GI50 of 1.77 µM and a TGI of 3.18 µM. `O=CNc1ccc2c(c1)C(=O)c1ccccc1-2` gave a TGI greater than 100 µM. Compound `O=C(Nc1ccc(Oc2ccc(Nc3nc4ccccc4s3)cc2)cc1)Nc1ccc(Cl)c(C(F)(F)F)c1` has a GI50 of 1.31 µM and a TGI of 2.61 µM. For `Nc1c(C(=O)Nc2cccc(C(F)(F)F)c2)sc2nc3c(cc12)CCCCC3`, the GI50 was 1.62 µM and the TGI was 4.18 µM. Work on `Nc1ccc(C2=NNC(=O)Cc3cc4c(cc32)OCCO4)cc1Cl` yielded a GI50 of 2.64 µM and a TGI greater than 50 µM. With `COc1ccc2nc3cc(Cl)ccc3c(NCCNCC(C)O)c2c1` (stereo unspecified) the GI50 was 0.751 µM and the TGI was 3.17 µM. Work on `CCn1c(-c2nonc2N)nc2c(C#CC(C)(C)O)nc(OC[C@@H](N)c3ccccc3)cc21` yielded a GI50 of 4.13 µM and a TGI of 7.63 µM. `Cn1ccc2c3c(Oc4ccc(NC(N)=O)cc4)ccnc3ccc21` was tested, and the GI50 was greater than 100 µM and the TGI was greater than 100 µM. Work on `Nc1n[nH]c2cc(F)c([C@@H]3Nc4ccc5[nH]ncc5c4[C@H]4C5CCC(C5)[C@@H]34)cc12` (stereo partly specified) yielded a GI50 of 0.174 µM and a TGI of 1.24 µM. `COc1ccc(CCN=C2NC(=O)/C(=C/c3ccc4ncccc4c3)S2)cc1` showed a GI50 greater than 25 µM and a TGI greater than 25 µM. `COC[C@H]1Cn2cc(-c3nc(Nc4ccnn4C)ncc3C)nc2C(=O)N1Cc1ccc(F)c(F)c1` was tested, and the GI50 was 0.124 µM and the TGI was greater than 100 µM.

The compounds below were run on HS 578T breast (assay: NCI-60 cell line screen, 48 h).
Compound `O=C(CCCSc1nc(-c2ccccc2)cc(-c2ccccc2)n1)NO` has a GI50 of 2.32 µM and a TGI of 27 µM. For `CC1SC(c2ccc(F)cc2)N(NC(=O)C(O)c2ccccc2)C1=O` (stereo unspecified), the GI50 was greater than 100 µM and the TGI was greater than 100 µM. Work on `COCCOc1ccc(-c2nc3ccc(-c4nc5ccc(N6CCN(C)CC6)cc5[nH]4)cc3[nH]2)cc1` yielded a GI50 of 2.94 µM and a TGI of 15.9 µM. With `Nc1n[nH]c2cccc(C#Cc3cccc(C(=O)Nc4ccc(CN5CCOCC5)c(C(F)(F)F)c4)c3)c12` the GI50 was 2.19 µM and the TGI was 8.23 µM. `CCC(=C/[C@H](C)C/C=C/C(C)=C/[C@@H](C)C(=O)[C@@H](C)[C@H](O)[C@@H](C)CC)/C=C/[C@H]1OC(=O)C=C[C@@H]1C` showed a GI50 of less than 0.01 µM and a TGI of 1.62 µM. `Nc1ccccc1SC(CC(=O)c1ccccc1)c1cccc([N+](=O)[O-])c1` (stereo unspecified) showed a GI50 of 21.5 µM and a TGI of 57.3 µM. `CN1CC[C@@H](NC(=O)Nc2ccc(C#N)cc2)C[C@@H]1c1nc2ccccc2[nH]1` was tested, and the GI50 was greater than 100 µM and the TGI was greater than 100 µM. Work on `COc1ccc2nc(NC(=O)CSc3nnc4n3S(=O)(=O)c3ccccc3N4c3ccccc3)sc2c1` yielded a GI50 greater than 100 µM and a TGI greater than 100 µM. `O=C1NC(=NC(CO)Cc2ccccc2)S/C1=C\c1ccc2ncccc2c1` (stereo unspecified) was tested, and the GI50 was 11.3 µM and 7.01 µM and the TGI was greater than 25 µM. In the case of `Cc1nnc(NC(=O)c2nc(S(=O)(=O)Cc3ccc(F)cc3)ncc2Cl)s1`, the GI50 is reported as 12.7 µM and the TGI is reported as 50.8 µM.
